This is an account of results in patent US6844151B1, “Methods for production of arrays with modified oligonucleotide and polynucleotide compositions” (Oligos Etc. Inc., priority 1999, dated 2005).

In general, Tm refers to the temperature at the midpoint of the melting transition.

[pOEt] = p-ethoxy (ethyl phosphotriester) internucleotide linkage

Data set [1] relates to Regular RNA 20-mer oligonucleotide SEQ ID NO:1. The data set is described as follows: Tm of 20-mer duplexes, modified SEQ ID NO:2 strand bound to Regular RNA SEQ ID NO:1. The data set is classed as binding. The settings on record: duplex with Regular RNA SEQ ID NO:1; 4 μM each; 50 mM NaCl, 10 mM PO4 buffer, pH 7.4. As for the experimental part: (§1) The stability of duplexes having 2′-substituted nucleotides versus duplexes without such modification was tested by examining the Tm of these complexes. 4 μM each of 20-mer oligonucleotide (5′-ggt ggt tcc tcc tca gtc gg-3′; SEQ ID NO:1) and its complement (5′- ccg act gag aag gaa cca cc-3;SEQ ID NO:2) were bound in a solution of 50 mM NaCl, 10 mM PO4 buffer, pH 7.4. Each of the nucleotides of the oligonucleotide had the same 2′ group. Following binding, the melting temperature was determined as described. (See L. L. Cummins et al., Nucleic Acids Research 23:2019-2024 (1995).

Data set [2] concerns Regular DNA 20-mer oligonucleotide SEQ ID NO:1. In words: Tm of 20-mer duplexes, modified SEQ ID NO:2 strand bound to Regular DNA SEQ ID NO:1. Type of data set: binding. The settings on record: duplex with Regular DNA SEQ ID NO:1; 4 μM each; 50 mM NaCl, 10 mM PO4 buffer, pH 7.4. As for the experimental part:
as §1

With “2′-O-methyl: SEQ ID NO:2 20-mer, every nucleotide with 2′-O-methyl group (CCGACTGAGAAGGAACCACC; all 2'-O-methyl, backbone and T or U not given here)”, the Tm in data set [1] worked out at 79 °C. For “Regular DNA: unmodified DNA 20-mer, SEQ ID NO:2 (5′-ccg act gag aag gaa cca cc-3′) (CCGACTGAGAAGGAACCACC; DNA, backbone not given here) [reference compound]”, the Tm in data set [1] is 66 °C.

Regarding “p-ethoxy 2′-O-methyl: SEQ ID NO:2 20-mer as p-ethoxy 2′-O-methyl (CCGACTGAGAAGGAACCACC; all 2'-O-methyl, all [pOEt], T or U not given here)”, the melting temperature (Tm) in data set [1] was 71 °C.

On to “p-ethoxy DNA: SEQ ID NO:2 20-mer as p-ethoxy DNA (CCGACTGAGAAGGAACCACC; DNA, all [pOEt], methylation of C not given here)”, for which the Tm in data set [2] was 55 °C. For the substance “p-ethoxy RNA: SEQ ID NO:2 20-mer as p-ethoxy RNA (CCGACTGAGAAGGAACCACC; RNA, all [pOEt], T or U not given here)”, the Tm in data set [1] was 56 °C.
